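Each compound was tested at five concentrations against cells in 96-well plates for 48 hours. GI50 is the concentration that inhibits growth by half.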 Active and inactive are the calls of the source. Cut-off read from the data, not from the text of the source: active = GI50 up to about 1.1 µM and inactive = higher.
Tests used:
Assay in all cases: NCI-60 cell line screen, 48 h
ACHN = test system: ACHN
NCI-H226 = test system: NCI-H226
MDA-N = test system: MDA-N
MCF7 = test system: MCF7
Hs-578T = test system: Hs-578T
A498 = test system: A498
OVCAR-4 = test system: OVCAR-4
LOX IMVI = test system: LOX IMVI
T47D = test system: T47D
MDA-MB-231 = test system: MDA-MB-231
MDA-MB-435 = test system: MDA-MB-435
A549 = test system: A549
OVCAR-8 = test system: OVCAR-8
Malme-3M = test system: Malme-3M
UO-31 = test system: UO-31
HOP-62 = test system: HOP-62
SK-MEL-28 = test system: SK-MEL-28
NCI-H23 = test system: NCI-H23
SF-268 = test system: SF-268
RXF 393 = test system: RXF 393
SK-MEL-5 = test system: SK-MEL-5
SNB-19 = test system: SNB-19
M14 = test system: M14
MOLT-4 = test system: MOLT-4
CCRF-CEM = test system: CCRF-CEM
HT-29 = test system: HT-29
NCI-H522 = test system: NCI-H522
COLO 205 = test system: COLO 205
HL-60 = test system: HL-60
UACC-257 = test system: UACC-257
NCI/ADR-RES = test system: NCI/ADR-RES
HCT-15 = test system: HCT-15
UACC-62 = test system: UACC-62
K562 = test system: K562
EKVX = test system: EKVX
HCC 2998 = test system: HCC 2998
CAKI-1 = test system: CAKI-1
OVCAR-3 = test system: OVCAR-3
SK-MEL-2 = test system: SK-MEL-2
SF-539 = test system: SF-539
HOP-92 = test system: HOP-92
RPMI-8226 = test system: RPMI-8226
HCT-116 = test system: HCT-116
SNB-75 = test system: SNB-75
KM12 = test system: KM12
SW-620 = test system: SW-620
SN12C = test system: SN12C
OVCAR-5 = test system: OVCAR-5
U-251 = test system: U-251
IGROV-1 = test system: IGROV-1
SF-295 = test system: SF-295
SK-OV-3 = test system: SK-OV-3
786-0 = test system: 786-0
BT-549 = test system: BT-549
SR = test system: SR
PC-3 = test system: PC-3
NCI-H460 = test system: NCI-H460
DU-145 = test system: DU-145
TK-10 = test system: TK-10

With `S=C(Nc1cccc(C2(N3CCCCC3)CCCCC2)c1)Nc1cccc(C2(N3CCCCC3)CCCCC2)c1` the GI50 (ACHN) was 23.9 µM (inactive), the GI50 (NCI-H226) was 27.2 µM (inactive) and the GI50 (MDA-N) was 17.6 µM (inactive). For the same compound, the GI50 (MCF7) was 31.3 µM (inactive), the GI50 (Hs-578T) was 38.9 µM (inactive) and the GI50 (A498) was 18.9 µM (inactive). The GI50 (OVCAR-4) was 35.6 µM (inactive), the GI50 (LOX IMVI) was 12.7 µM (inactive) and the GI50 (T47D) was 19.5 µM (inactive). The GI50 (MDA-MB-231) was 15.6 µM (inactive), the GI50 (MDA-MB-435) was 16 µM (inactive) and the GI50 (A549) was 31.6 µM (inactive). For the same compound, the GI50 (OVCAR-8) was 24.3 µM (inactive), the GI50 (Malme-3M) was 20.7 µM (inactive) and the GI50 (UO-31) was 16.9 µM (inactive). For the same compound, the GI50 (HOP-62) was 39.2 µM (inactive), the GI50 (SK-MEL-28) was 17.9 µM (inactive) and the GI50 (NCI-H23) was > 100 µM (inactive). The GI50 (SF-268) was 36.8 µM (inactive), the GI50 (RXF 393) was 13.6 µM (inactive) and the GI50 (SK-MEL-5) was 17.7 µM (inactive). For the same compound, the GI50 (SNB-19) was 36.6 µM (inactive), the GI50 (M14) was 18.7 µM (inactive) and the GI50 (MOLT-4) was 13.5 µM (inactive). For the same compound, the GI50 (CCRF-CEM) was 13.6 µM (inactive), the GI50 (HT-29) was 19.4 µM (inactive) and the GI50 (NCI-H522) was 20.4 µM (inactive). For the same compound, the GI50 (COLO 205) was 17.1 µM (inactive), the GI50 (HL-60) was 14.9 µM (inactive) and the GI50 (UACC-257) was 18 µM (inactive). The GI50 (NCI/ADR-RES) was > 100 µM (inactive), the GI50 (HCT-15) was 32.2 µM and the GI50 (UACC-62) was 18.9 µM (inactive). For the same compound, the GI50 (K562) was 11.2 µM (inactive), the GI50 (EKVX) was 38 µM (inactive) and the GI50 (HCC 2998) was 2.43 µM (inactive). For the same compound, the GI50 (CAKI-1) was 42 µM (inactive), the GI50 (OVCAR-3) was 21.8 µM (inactive) and the GI50 (SK-MEL-2) was 18.4 µM (inactive). For the same compound, the GI50 (SF-539) was 15.3 µM (inactive), the GI50 (HOP-92) was 10.3 µM (inactive) and the GI50 (RPMI-8226) was 10.6 µM (inactive). The GI50 (HCT-116) was 20.8 µM (inactive), the GI50 (SNB-75) was 12.9 µM (inactive) and the GI50 (KM12) was 16 µM (inactive). For the same compound, the GI50 (SW-620) was 37.8 µM (inactive), the GI50 (SN12C) was 31.6 µM (inactive) and the GI50 (OVCAR-5) was 66.4 µM (inactive). For the same compound, the GI50 (U-251) was 23.4 µM (inactive), the GI50 (IGROV-1) was 54.5 µM (inactive) and the GI50 (SF-295) was 37.8 µM (inactive). The GI50 (SK-OV-3) was > 100 µM (inactive), the GI50 (786-0) was 15.2 µM (inactive) and the GI50 (BT-549) was 41.1 µM (inactive). The GI50 (SR) was 13.6 µM (inactive), the GI50 (PC-3) was 26.9 µM (inactive) and the GI50 (NCI-H460) was 18.7 µM (inactive). For the same compound, the GI50 (DU-145) was 27.3 µM (inactive) and the GI50 (TK-10) was 2.69 µM (inactive).

Reference: ChEMBL document CHEMBL1201862, “PubChem BioAssay data set” (2004)
